Test results published in ChEMBL document CHEMBL4342422, “Synthetic strategy and SAR studies of C-glucoside heteroaryls as SGLT2 inhibitor: A review” (Eur J Med Chem, 2019).

Columns and labels:
[1] = Tmax in human at 5 mg, po; format: ADME; conditions: in vivo
Homo sapiens [2] = assay: Antidiabetic activity in human T2DM patients assessed as reduction in HbA1c level at 25 mg, po for 12 weeks relative to control; format: functional; design: scale not given: the % may be the effect or the level left
[3] = Toxicity in human T2DM patients assessed as reduction in systolic blood pressure at 5 mg, po for 4 weeks; format: organism-based; conditions: in vivo, 672 h
[4] = Toxicity in human T2DM patients assessed as reduction in systolic blood pressure at 10 mg, po for 4 weeks; format: organism-based; conditions: in vivo, 672 h
Homo sapiens [5] = assay: Antidiabetic activity in human T2DM patients assessed as reduction in HbA1c level at 50 mg, po for 24 weeks relative to control; format: functional; design: scale not given: the % may be the effect or the level left
Homo sapiens [6] = assay: Antidiabetic activity in human T2DM patients assessed as fasting blood glucose level at 50 mg, po for 24 weeks; format: functional
Homo sapiens [7] = assay: Antidiabetic activity in human T2DM patients assessed as reduction in body weight at 50 mg, po for 24 weeks; format: functional
Homo sapiens [8] = assay: Antidiabetic activity in human T2DM patients assessed as reduction in HbA1c level at 20 mg, po for 24 weeks relative to control; format: functional; design: scale not given: the % may be the effect or the level left
Homo sapiens [9] = assay: Antidiabetic activity in human T2DM patients assessed as reduction in body weight at 20 mg, po for 24 weeks; format: functional
[10] = Toxicity in human T2DM patients assessed as reduction in blood pressure at 20 mg, po for 24 weeks; format: organism-based; conditions: in vivo, 4032 h
Homo sapiens [11] = assay: Antidiabetic activity in human T2DM patients assessed as reduction in HbA1c level at 10 mg, po relative to control; format: functional; design: scale not given: the % may be the effect or the level left
Homo sapiens [12] = assay: Antidiabetic activity in human T2DM patients assessed as reduction in HbA1c level at 25 mg, po relative to control; format: functional; design: scale not given: the % may be the effect or the level left
Homo sapiens [13] = assay: Antidiabetic activity in human T2DM patients assessed as reduction in body weight at 10 to 25 mg, po; format: functional
[14] = Toxicity in human T2DM patients assessed as reduction in systolic blood pressure at 25 mg, po; conditions: in vivo
[15] = Toxicity in human T2DM patients assessed as reduction in diastolic blood pressure at 25 mg, po; conditions: in vivo
[16] = Half life in human; format: ADME
[17] = Elimination half life in human at 1 to 25 mg, po; format: ADME; conditions: in vivo, read-out: LambdaZ
[18] = Toxicity in human assessed as urinary tract infection at 200 to 400 mg, po for 52 weeks; format: organism-based; conditions: in vivo, 8736 h

Work on `CCOc1ccc(Cc2cc([C@]34OC[C@](CO)(O3)[C@@H](O)[C@H](O)[C@H]4O)ccc2Cl)cc1` [ERTUGLIFLOZIN] yielded a Tmax [1] of 1 h, an Activity (Homo sapiens [2]) of -0.72% and an Activity [3] of 2.59 to 2.86 mmHg. The Activity [4] was 2.59 to 2.86 mmHg.
`OC[C@H]1O[C@@H](c2ccc(F)c(Cc3cc4ccccc4s3)c2)[C@H](O)[C@@H](O)[C@@H]1O` [IPRAGLIFLOZIN] gave an Activity (Homo sapiens [5]) of 0.79%, an Activity (Homo sapiens [6]) of 32.89 mg/dL and an Activity (Homo sapiens [7]) of 1.1 kg.
With `CCc1ccc(Cc2ccc3c(c2)[C@]2(OC3)O[C@H](CO)[C@@H](O)[C@H](O)[C@H]2O)cc1` [TOFOGLIFLOZIN ANHYDROUS] the Activity (Homo sapiens [8]) was 1.017%, the Activity (Homo sapiens [9]) was 2.9 kg and the Activity [10] was 2.1 mmHg.
In the case of `OC[C@H]1O[C@@H](c2ccc(Cl)c(Cc3ccc(O[C@@H]4CCOC4)cc3)c2)[C@H](O)[C@@H](O)[C@@H]1O`, the Activity (Homo sapiens [11]) is reported as 0.929%, the Activity (Homo sapiens [12]) is reported as 1.064% and the Activity (Homo sapiens [13]) is reported as 1.85 kg. For the same compound, the Activity [14] was 4.19 mmHg, the Activity [15] was -1.04 mmHg and the half-life [16] was 1 h.
For `CCOc1ccc(Cc2cc([C@@H]3S[C@H](CO)[C@@H](O)[C@H](O)[C@H]3O)c(OC)cc2C)cc1` [LUSEOGLIFLOZIN], the half-life [17] was 9.2 to 13.8 h.
For `CCOc1ccc(Cc2cc([C@@H]3O[C@H](SC)[C@@H](O)[C@H](O)[C@H]3O)ccc2Cl)cc1` [SOTAGLIFLOZIN], the Activity [18] was 4.2 to 6.9%.
